Patent US6410588B1, “Use of cannabinoids as anti-inflammatory agents” (priority 1998, dated 2002)

What was measured:
[1] = test system: nitric oxide (NO) generation; experiment: nitric oxide (NO) generation by Thioglycollate induced macrophages, Griess reagent; format: cell-based, mouse
[2] = test system: collagen induced arthritis (CIA); experiment: histological analysis of hind paw joints in CIA; format: in vivo, mouse; settings: for joints completely protected: hind paws, day 10, control: no normal joints
Procedure: The hind paws were assessed as normal, mildly affected or severely destroyed.
Hind paws and knee joints were removed post mortem on the tenth day of arthritis, fixed in formalin and decalcified in 5% EDTA. Paws and knees were then embedded in paraffin, sectioned and stained with haematoxylin and eosin. Arthritic changes in the ankle, the metatarsophalangeal joints, the proximal interphalangeal and the distal interphalangeal joints were scored blindly as mild (mild synovial hyperplasia), moderate (pannus formulation and erosions limited to the cartilage-pannus junction), or severe (=extended bone and cartilage erosions with loss of joint architecture).

[3] = test system: spleen cells (splenocytes); experiment: mitogen-induced cell proliferation of spleen cells; format: cell-based, mouse (BALB/c, C57BL/6)
Procedure: Cultures were pulsed with ^3H-thymidine and harvested 6 hours later.
Female mice (aged 8-12 weeks) of strains C57BL/6 (B6, H-2^b) and BALB/c (H-2^d) were purchased from Harlan, Jerusalem, and maintained under specific pathogen-free (SPF) conditions in the animal facilities of the Hebrew University Medical School, Jerusalem, in accordance with the Hebrew University guidelines, DMEM (Biological Industries, Beit Haemek. Israel) was supplemented with 1 mM sodium pyruvate, 10 mM HEPES buffer, 0.5 mM asparagine-HCl, 0.03 mM filic acid, 0.5 mM L-aspartic acid, 5×10^−5M 2-mercaptoethanol, 2 mM glutamine, antibotics and 10% FCS (complete DMEM).
Spleen cells, at a final concentration of 5×10^6 cells/ml, were cultured in triplicate wells of flat-bottom microtiter plates (Nunc, Denmark) in medium alone, 2.5 μg/ml concanavalin A (ConA. Biomakor, Israel) or 50 μ/ml lipopolysaccharide (LPS, Difco). The final volume was 200 μl/well. Following two days of incubation at 37° C., in an 8% CO2-in-air incubator (as in all other procedures described here), 1 μCi of ^3H-thymidine was added to each well. Cells were harvested 6 h later, with a Tomtec (USA) cell harvester and counted in a MicroBeta scintillation counter (Wallac, Finland).

spleen cells = experiment: mixed leukocyte reaction (MLR); format: cell-based, mouse (BALB/c); settings: above 4 μg/ml CBD
Procedure: Cultures were pulsed with ^3H-thymidine and harvested 18 hours later.
Spleen cells (1×10^6/well) were co-cultured in triplicate wells of flat-bottom microtiter plates (Nunc), with an equal number of irradiated ([…]) syngeneic or allogeneic splenocytes in a final volume of 200 μl/well. After 3-days incubation, the cells were labelled with ^3H-thymidine (1 μCi/well) and harvested, following an additional incubation of 18 h, as described above.

[4] = test system: ROI production by granulocytes; experiment: ROI production by granulocytes, luminol-enhanced chemiluminescence response to zymosan; format: cell-based, mouse (C57BL/6)
Procedure: Thioglycollate-elicited granulocytes were harvested from C57BL/6 mice by sterile lavage with PBS 18 hrs. after intraperitoneal injection with 1.5 ml thioglycollate medium (1.5 ml in 3% solution). The cells were washed and resuspended at 5×10^5 cells/ml in Hanks' buffered salt solution without phenol red, and distributed at 0.5 ml/tube into luminometer plastic tubes. […] The tube was inserted into luminometer (Biolumate LB 95 oot Berhold Wildbad Germany) which had been prewarmed to 37° C. The granulocyte luminol-enhanced chemiluminescence response to zymosan was considered as the positive control.

IL-6 = experiment: human rheumatoid synovial cell IL-6 production (ELISA); format: cell-based; settings: for IL-6, mean: 48 hours culture
Procedure: (§1) Synovial membrane tissue was obtained from a patient fulfilling the revised American College of Rheumatology criteria for rheumatoid arthritis who underwent joint replacement surgery. Synovial cell cultures were prepared as described. Briefly, synovial membrane tissue was digested with collagenase type A (1 mg/ml) and DNAase I (0.15 mg/ml) in RPMI 1640 containing 5% FCS for 2 hours at 37° C.
(§2) Similarly, rheumatoid synovial cells spontaneously produce cytokines when cultured in vitro. […] With restricted number of human synovial cells in this sample, the optimal dose for inhibiting TNFα may have been missed.

IL-8 = experiment: human rheumatoid synovial cell IL-8 production (ELISA); format: cell-based; settings: for IL-8, mean: 48 hours culture
Procedure: as §1, §2

Legionella = settings: mouse, in vivo; cited from earlier work
PBQ-induced writhing = settings: orally at doses up to 10 mg/kg; cited from earlier work
nitric oxide (NO) = settings: macrophages activated by LPS and IFNγ; cited from earlier work
[5] = LPS 1 μg/ml + IFNγ 10 U/ml, CBD 2 μg/ml
[6] = LPS 1 μg/ml + IFNγ 10 U/ml, CBD 4 (μg/ml)
[7] = LPS 1 μg/ml + IFNγ 10 U/ml, CBD 6 (μg/ml)
[8] = LPS 1 μg/ml + IFNγ 10 U/ml, CBD 8 (μg/ml)

Structure (SMILES): C=C(C)[C@@H]1CCC(C)=C[C@H]1c1c(O)cc(CCCCC)cc1O [CBD, Cannabidiol]
- % INHIBITION of NO, 24 h [1, 5]: 14%
- NO, 24 h [1, 5]: 12 nM
- NO, 48 h ([1]; LPS 1 μg/ml + IFNγ 10 U/ml, CBD 2 (μg/ml)): 25.4 nM
- % INHIBITION of NO, 24 h [1, 6]: 51%
- NO, 24 h [1, 6]: 6.9 nM
- NO, 48 h [1, 6]: 21.3 nM
- % INHIBITION of NO, 24 h [1, 7]: 61%
- NO, 24 h [1, 7]: 5.5 nM
- NO, 48 h [1, 7]: 18.1 nM
- % INHIBITION of NO, 24 h [1, 8]: 99%
- NO, 24 h [1, 8]: 0.2 nM
- % INHIBITION of NO, 48 h [1, 8]: 85%
- NO, 48 h [1, 8]: 3.1 nM
- % INHIBITION of NO, 24 h ([1]; LPS 1 μg/ml, CBD 2 (μg/ml)): 32%
- NO, 24 h ([1]; LPS 1 μg/ml, CBD 2 (μg/ml)): 3.7 nM
- % INHIBITION of NO, 48 h ([1]; LPS 1 μg/ml, CBD 2 (μg/ml)): 9%
- NO, 48 h ([1]; LPS 1 μg/ml, CBD 2 (μg/ml)): 6.7 nM
- % INHIBITION of NO, 24 h ([1]; LPS 1 μg/ml, CBD 4 (μg/ml)): 90%
- NO, 24 h ([1]; LPS 1 μg/ml, CBD 4 (μg/ml)): 0.5 nM
- % INHIBITION of NO, 48 h ([1]; LPS 1 μg/ml, CBD 4 (μg/ml)): 37%
- NO, 48 h ([1]; LPS 1 μg/ml, CBD 4 (μg/ml)): 4.6 nM
- % INHIBITION of NO, 24 h ([1]; LPS 1 μg/ml, CBD 6 (μg/ml)): 99%
- NO, 24 h ([1]; LPS 1 μg/ml, CBD 6 (μg/ml)): 0.1 nM
- % INHIBITION of NO, 48 h ([1]; LPS 1 μg/ml, CBD 6 (μg/ml)): 71%
- NO, 48 h ([1]; LPS 1 μg/ml, CBD 6 (μg/ml)): 2.1 nM
- % INHIBITION of NO, 24 h ([1]; LPS 1 μg/ml, CBD 8 (μg/ml)): 99%
- NO, 24 h ([1]; LPS 1 μg/ml, CBD 8 (μg/ml)): 0.1 nM
- % INHIBITION of NO, 48 h ([1]; LPS 1 μg/ml, CBD 8 (μg/ml)): 95%
- NO, 48 h ([1]; LPS 1 μg/ml, CBD 8 (μg/ml)): 0.4 nM
- effect on nitric oxide production (in words) ([1]; higher concentrations of CBD): inhibit nitric oxide production
- effect on nitric oxide production (in words) ([1]; low concentrations of CBD): activate nitric oxide production
- joints moderately or severely affected ([2]; 5 mg/kg CBD, control mice 69%): 42%
- joints completely protected ([2]; 5 mg/kg CBD): 33%
- joints completely protected ([2]; 10 mg/kg CBD): 11%
- response of splenocytes to Concanavalin A (ConA) and LPS (3H-thymidine) ([3]; BALB/C splenocytes): decreases the response
- response of splenocytes to Concanavalin A (ConA) and LPS (3H-thymidine) ([3]; C57BL/6 splenocytes): decreases the response
- 3H-thymidine uptake in MLR (spleen cells): slight decrease
- Chemiluminescence computer peak ([4]; Zymozan + CBD 5 μg/ml (1 h)): 157
- Chemiluminescence computer peak ([4]; Zymozan + CBD 6 μg/ml (0 h)): 1024
- Chemiluminescence computer peak ([4]; Zymozan + CBD 6 μg/ml (2 h)): 235
- IL-6 release (in words) (IL-6): dose-dependent inhibition
- IL-6, mean (IL-6; CBD 0.1 μg/ml): 281 ng/mL
- IL-6, mean (IL-6; CBD 1 μg/ml): 326 ng/mL
- IL-6, mean (IL-6; CBD 20 μg/ml): 125 ng/mL
- IL-8 release (in words) (IL-8): dose-dependent inhibition
- IL-8, mean (IL-8; CBD 0.1 μg/ml): 174 ng/mL
- IL-8, mean (IL-8; CBD 1 μg/ml): 183 ng/mL
- IL-8, mean (IL-8; CBD 20 μg/ml): 87 ng/mL
- mortality of mice sublethally injected with Legionella (Legionella): not affected
- PBQ-induced writhing (PBQ-induced writhing): inhibited PBQ-induced writhing
- nitric oxide (NO) production (nitric oxide (NO)): inhibited
